Reference: ChEMBL document CHEMBL6120978, “Anticancer activity of salinomycin quaternary phosphonium salts” (Eur J Med Chem, 2025)
≈ marks a conversion by molar mass, not a printed value. Calls of active or inactive are those of the source. The calls are words filed in the database; no cut-off is given here.

Columns and labels:
[1] = Selectivity index, ratio of IC50 for cytotoxicity against chinese hamster V79 cells to IC50 for cytotoxicity against human MDA-MB-231 cells; format: toxicity, cell-based; details: V79 cells versus MDA-MB-231 cells, read-out: Ratio IC50
[2] = Cytotoxicity against chinese hamster V79 cells incubated for 72 hrs by MTT assay; format: toxicity, cell-based, Cricetulus griseus
Staphylococcus aureus [3] = experiment: Antimicrobial activity against Staphylococcus aureus ATCC 29213 incubated for 18 hrs by twofold microdilution method; format: functional
MDA-MB-231 [4] = experiment: Induction of apoptosis in human MDA-MB-231 cells assessed as viable cells at IC50 incubated for 72 hrs by Annexin V-FITC staining based flow cytometry analysis (reference value: 91.53 %); format: functional
[5] = Selectivity index, ratio of IC50 for cytotoxicity against chinese hamster V79 cells to IC50 for cytotoxicity against human A549 cells; format: toxicity, cell-based; details: V79 cells versus A549 cells, read-out: Ratio IC50
MDA-MB-231 [6] = experiment: Induction of apoptosis in human MDA-MB-231 cells assessed as necrotic cells at IC50 incubated for 72 hrs by Annexin V-FITC staining based flow cytometry analysis (reference value: 1.17 %); format: functional
[7] = Cytotoxicity against human HaCaT cells incubated for 72 hrs by MTT assay; format: toxicity, cell-based
Mitochondrial membrane [8] = experiment: Induction of mitochondrial membrane potential loss in human MDA-MB-231 cells assessed as red fluorescence at IC50 incubated for 48 hrs MitoTrackerRed CMXRos staining based flow cytometry analysis (reference value: 91.1 %); format: cell membranes
[9] = Selectivity index, ratio of IC50 for cytotoxicity against chinese hamster V79 cells to IC50 for cytotoxicity against human SW480 cells; format: toxicity, cell-based; details: V79 cells versus SW480 cells, read-out: Ratio IC50
[10] = Selectivity index, ratio of IC50 for cytotoxicity against chinese hamster V79 cells to IC50 for cytotoxicity against human SW620 cells; format: toxicity, cell-based; details: V79 cells versus SW620 cells, read-out: Ratio IC50
Staphylococcus aureus [11] = experiment: Antimicrobial activity against Staphylococcus aureus ATCC 25923 incubated for 18 hrs by twofold microdilution method; format: functional
MDA-MB-231 [12] = experiment: Induction of apoptosis in human MDA-MB-231 cells assessed as late apoptotic cells at IC50 incubated for 72 hrs by Annexin V-FITC staining based flow cytometry analysis (reference value: 3.07 %); format: functional
Pseudomonas aeruginosa = experiment: Antimicrobial activity against Pseudomonas aeruginosa ATCC 15442 incubated for 18 hrs by twofold microdilution method; format: functional
Staphylococcus aureus [13] = experiment: Antimicrobial activity against Staphylococcus aureus NCTC 4163 incubated for 18 hrs by twofold microdilution method; format: functional
PC-3 = experiment: Cytotoxicity against human PC-3 cells incubated for 72 hrs by MTT assay; format: functional, cell-based; details: PC-3, 72 h
Staphylococcus aureus [14] = experiment: Antimicrobial activity against Staphylococcus aureus ATCC 6538 incubated for 18 hrs by twofold microdilution method; format: functional
A549 [15] = experiment: Induction of apoptosis in human A549 cells assessed as late apoptotic cells at IC50 incubated for 72 hrs by Annexin V-FITC staining based flow cytometry analysis (reference value: 1.86 %); format: functional
Lipid bilayer [16] = experiment: Induction of ionic transport in azolectin bilayer membrane assessed as specific channel-like structure formation in presence of HEPES buffer by electrophysiology technique
Mitochondrial membrane [17] = experiment: Induction of mitochondrial membrane potential loss in human A549 cells assessed as red fluorescence at IC50 incubated for 48 hrs MitoTrackerRed CMXRos staining based flow cytometry analysis (reference value: 91.1 %); format: cell membranes
A549 [18] = experiment: Induction of apoptosis in human A549 cells assessed as early apoptotic cells at IC50 incubated for 72 hrs by Annexin V-FITC staining based flow cytometry analysis (reference value: 1.68 %); format: functional
Lipid bilayer [19] = experiment: Induction of current generation in azolectin bilayer membrane upto 10 uM in presence of HEPES buffer by electrophysiology technique; format: cell membranes
[20] = Selectivity index, ratio of IC50 for cytotoxicity against chinese hamster V79 cells to IC50 for cytotoxicity against human PC-3 cells; format: toxicity, cell-based; details: V79 cells versus PC-3 cells, read-out: Ratio IC50
MDA-MB-231 [21] = experiment: Induction of apoptosis in human MDA-MB-231 cells assessed as early apoptotic cells at IC50 incubated for 72 hrs by Annexin V-FITC staining based flow cytometry analysis (reference value: 4.23 %); format: functional
A549 [22] = experiment: Induction of apoptosis in human A549 cells assessed as viable cells at IC50 incubated for 72 hrs by Annexin V-FITC staining based flow cytometry analysis (reference value: 95.49 %); format: functional
A549 [23] = experiment: Induction of mitochondrial respiration in human A549 cells assessed as oxygen consumption rate at 0.1 to 10 uM by Oxygraph-2K system; format: functional, cell-based; details: dose 0.1-10 µM
SW480 = experiment: Cytotoxicity against human SW480 cells incubated for 72 hrs by MTT assay; format: functional, cell-based; details: SW480, 72 h
[24] = Selectivity index, ratio of IC50 for cytotoxicity against human HaCaT cells to IC50 for cytotoxicity against human PC-3 cells; format: toxicity, cell-based; details: HaCaT cells versus PC-3 cells, read-out: Ratio IC50
A549 [25] = experiment: Effect on mitochondrial function in human A549 cells assessed as change in mean fluorescence intensity at IC50 incubated for 48 hrs by MitoTracker Red CMXRos staining based flow cytometry analysis; format: functional, cell-based
A549 [26] = experiment: Induction of ROS generation of human A549 cells at IC50 incubated for 6 hrs by CellROX Green staining based spectrofluorometer analysis; format: functional, cell-based
[27] = system: Staphylococcus epidermidis; experiment: Antimicrobial activity against Staphylococcus epidermidis ATCC 35984 incubated for 18 hrs by twofold microdilution method; format: functional
A549 [28] = experiment: Cytotoxicity against human A549 cells incubated for 72 hrs by MTT assay; format: functional, cell-based; details: A549, 72 h
[29] = Selectivity index, ratio of IC50 for cytotoxicity against human HaCaT cells to IC50 for cytotoxicity against human MDA-MB-231 cells; format: toxicity, cell-based; details: HaCaT cells versus MDA-MB-231 cells, read-out: Ratio IC50
A549 [30] = experiment: Induction of apoptosis in human A549 cells assessed as necrotic cells at IC50 incubated for 72 hrs by Annexin V-FITC staining based flow cytometry analysis (reference value: 0.97 %); format: functional
[31] = Selectivity index, ratio of IC50 for cytotoxicity against human HaCaT cells to IC50 for cytotoxicity against human SW480 cells; format: toxicity, cell-based; details: HaCaT cells versus SW480 cells, read-out: Ratio IC50
Escherichia coli = experiment: Antimicrobial activity against Escherichia coli ATCC 25922 incubated for 18 hrs by twofold microdilution method; format: functional
MDA-MB-231 [32] = experiment: Cytotoxicity against human MDA-MB-231 cells incubated for 72 hrs by MTT assay; format: functional, cell-based; details: MDA-MB-231, 72 h
Mitochondrial membrane [33] = experiment: Induction of mitochondrial membrane potential loss in human A549 cells assessed as green fluorescence at IC50 incubated for 48 hrs MitoTracker Green FM staining based flow cytometry analysis (reference value: 8.93 %); format: cell membranes
MDA-MB-231 [34] = experiment: Effect on mitochondrial mass in human MDA-MB-231 cells assessed as increase in mean fluorescence intensity at IC50 incubated for 48 hrs by MitoTracker Green FM staining based flow cytometry analysis; format: functional, cell-based
MDA-MB-231 [35] = experiment: Induction of ROS generation of human MDA-MB-231 cells at IC50 incubated for 6 hrs by CellROX Green staining based spectrofluorometer analysis; format: functional, cell-based
[36] = Selectivity index, ratio of IC50 for cytotoxicity against human HaCaT cells to IC50 for cytotoxicity against human SW620 cells; format: toxicity, cell-based; details: HaCaT cells versus SW620 cells, read-out: Ratio IC50
Lipid bilayer [37] = experiment: Induction of ionic transport in azolectin bilayer membrane assessed as irregular disturbance in membrane permeability in presence of HEPES buffer by electrophysiology technique
[38] = Selectivity index, ratio of IC50 for cytotoxicity against human HaCaT cells to IC50 for cytotoxicity against human A549 cells; format: toxicity, cell-based; details: HaCaT cells versus A549 cells, read-out: Ratio IC50
[39] = system: Staphylococcus epidermidis; experiment: Antimicrobial activity against Staphylococcus epidermidis ATCC 12228 incubated for 18 hrs by twofold microdilution method; format: functional
Mitochondrial membrane [40] = experiment: Induction of mitochondrial membrane potential loss in human MDA-MB-231 cells assessed as green fluorescence at IC50 incubated for 48 hrs MitoTracker Green FM staining based flow cytometry analysis (reference value: 8.86 %); format: cell membranes
A549 [41] = experiment: Effect on mitochondrial mass in human A549 cells assessed as increase in mean fluorescence intensity at IC50 incubated for 48 hrs by MitoTracker Green FM staining based flow cytometry analysis; format: functional, cell-based
MDA-MB-231 [42] = experiment: Induction of cell cycle arrest in human MDA-MB-231 cells assessed as inhibition of cell division at IC50 incubated for 24 hrs by propidium iodide staining based flow cytometry analysis; format: functional
Lipid bilayer [43] = experiment: Induction of ionic transport in azolectin bilayer membrane assessed as membrane rupture in presence of HEPES buffer by electrophysiology technique
SW-620 = experiment: Cytotoxicity against human SW620 cells incubated for 72 hrs by MTT assay; format: functional, cell-based; details: SW-620, 72 h

What does the source list for CC[C@@H](C(=O)[C@@H](C)[C@@H](O)[C@H](C)[C@@H]1O[C@@H]([C@@H](CC)C(=O)O)CC[C@@H]1C)[C@H]1O[C@]2(C=C[C@@H](O)[C@]3(CC[C@@](C)([C@H]4CC[C@](O)(CC)[C@H](C)O4)O3)O2)[C@H](C)C[C@@H]1C [SALINOMYCIN]?
selectivity ratio [1]: 1.2; IC50 at 72 h [2]: 1440 nM; MIC (Staphylococcus aureus [3]): 0.5 µg/mL (≈ 0.666 µM); Activity (MDA-MB-231 [4]): 76.94%; selectivity ratio [5]: 0.8; Activity (MDA-MB-231 [6]): 2.97%; IC50 at 72 h [7]: 800 nM; Activity (Mitochondrial membrane [8]): 76.7%; selectivity ratio [9]: 1.1; selectivity ratio [10]: 0.8; MIC (Staphylococcus aureus [11]): 0.5 µg/mL (≈ 0.666 µM); Activity (MDA-MB-231 [12]): 11.49%; MIC (Pseudomonas aeruginosa): > 256 µg/mL; MIC (Staphylococcus aureus [13]): 0.5 µg/mL (≈ 0.666 µM); IC50 (PC-3): 3000 nM; MIC (Staphylococcus aureus [14]): 0.5 µg/mL (≈ 0.666 µM); Activity (A549 [15]): 2.05%; Activity (Lipid bilayer [16]): inactive; Activity (Mitochondrial membrane [17]): 91.2%; Activity (A549 [18]): 9.72%; Activity (Lipid bilayer [19]): inactive; selectivity ratio [20]: 0.5; Activity (MDA-MB-231 [21]): 8.6%; Activity (A549 [22]): 84.56%; Activity (A549 [23]): inactive; IC50 (SW480): 1360 nM; selectivity ratio [24]: 0.3; Activity (A549 [25]): inactive; Activity (A549 [26]): Active; Slight Insignificant Increase In Ros Level Was Observed; MIC [27]: 1 µg/mL (≈ 1.33 µM); IC50 (A549 [28]): 1860 nM; selectivity ratio [29]: 0.66; Activity (A549 [30]): 3.67%; selectivity ratio [31]: 0.6; MIC (Escherichia coli): > 256 µg/mL; IC50 (MDA-MB-231 [32]): 1220 nM; Activity (Mitochondrial membrane [33]): 18.8%; Activity (MDA-MB-231 [34]): Active; Slight Increase In Mfi Is Observed; Activity (MDA-MB-231 [35]): Active; Slight Insignificant Increase In Ros Level Was Observed; selectivity ratio [36]: 0.4; Activity (Lipid bilayer [37]): inactive; selectivity ratio [38]: 0.4; MIC [39]: 0.5 µg/mL (≈ 0.666 µM); Activity (Mitochondrial membrane [40]): 23.4%; Activity (A549 [41]): Active; Slight Increase In Mfi Is Observed; Activity (MDA-MB-231 [42]): Active; Activity (Lipid bilayer [43]): inactive; IC50 (SW-620): 1810 nM
